Assay results published in ChEMBL document CHEMBL1909046, “DrugMatrix in vitro pharmacology data”.

Assays:
[1] = DRUGMATRIX: Serotonin (5-Hydroxytryptamine) 5-HT3 radioligand binding (ligand: [3H] GR-65630); type: cell membranes, Membrane; conditions: hek293; Not Active = under 50% inhibition at 10 µM
D(4) dopamine receptor = target: T1, D(4) dopamine receptor (Homo sapiens, UniProt P21917); experiment: DRUGMATRIX: Dopamine D4.2 radioligand binding (ligand: [3H] Spiperone); type: cell membranes, CHO-K1, Membrane; conditions: cho-k1; Not Active = under 50% inhibition at 10 µM
T1 sequence (P21917 whole entry): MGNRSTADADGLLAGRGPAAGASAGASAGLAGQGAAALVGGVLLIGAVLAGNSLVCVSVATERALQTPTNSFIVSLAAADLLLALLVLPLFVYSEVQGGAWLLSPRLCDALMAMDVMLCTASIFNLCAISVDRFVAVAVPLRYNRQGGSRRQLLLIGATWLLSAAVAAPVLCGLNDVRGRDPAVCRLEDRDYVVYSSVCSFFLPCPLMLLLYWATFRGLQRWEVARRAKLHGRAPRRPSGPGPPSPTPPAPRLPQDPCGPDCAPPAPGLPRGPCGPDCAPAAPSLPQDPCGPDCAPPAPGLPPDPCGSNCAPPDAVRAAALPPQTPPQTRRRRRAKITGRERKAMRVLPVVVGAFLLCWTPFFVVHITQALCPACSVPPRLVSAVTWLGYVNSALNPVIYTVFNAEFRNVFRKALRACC

[2] = DRUGMATRIX: beta-Lactamase enzyme inhibition (substrate: Nitrocefin); parameters: species or system Bacillus cereus; conditions: Not Active = under 50% inhibition at 10 µM
[3] = target: Beta-1 adrenergic receptor (Homo sapiens, UniProt P08588); experiment: DRUGMATRIX: Adrenergic beta1 radioligand binding (ligand: [125I] Cyanopindolol); type: cell membranes, CHO-K1, Membrane; conditions: cho-k1; Not Active = under 50% inhibition at 10 µM
[4] = target: Mitogen-activated protein kinase 14 (Homo sapiens, UniProt Q16539); parameters: species or system Escherichia coli;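 note: inhibition of p38alpha enzyme activity in a biochemical kinase assay, with myelin basic protein serving as substrate; in other assays of this panel Not Active means under 50% inhibition at 10 µM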
Leukotriene C4 synthase = target: T2, Leukotriene C4 synthase (Cavia porcellus, UniProt A6XA80); type: tissue-based, Lung;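 note: enzyme inhibition assay of leukotriene C4 synthase, using LTA4 as the substrate; in other assays of this panel Not Active means under 50% inhibition at 10 µM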
T2 sequence (A6XA80 whole entry): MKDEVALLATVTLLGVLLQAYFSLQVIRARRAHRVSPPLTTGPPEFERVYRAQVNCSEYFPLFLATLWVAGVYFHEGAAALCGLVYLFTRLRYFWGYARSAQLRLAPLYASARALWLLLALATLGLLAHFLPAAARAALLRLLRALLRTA

[5] = DRUGMATRIX: Interleukin IL-1 radioligand binding (ligand: [125I] interleukin 1beta); type: cell membranes, Membrane; conditions: nih3t3; Not Active = under 50% inhibition at 10 µM

Sequence of Beta-1 adrenergic receptor (P08588 whole entry): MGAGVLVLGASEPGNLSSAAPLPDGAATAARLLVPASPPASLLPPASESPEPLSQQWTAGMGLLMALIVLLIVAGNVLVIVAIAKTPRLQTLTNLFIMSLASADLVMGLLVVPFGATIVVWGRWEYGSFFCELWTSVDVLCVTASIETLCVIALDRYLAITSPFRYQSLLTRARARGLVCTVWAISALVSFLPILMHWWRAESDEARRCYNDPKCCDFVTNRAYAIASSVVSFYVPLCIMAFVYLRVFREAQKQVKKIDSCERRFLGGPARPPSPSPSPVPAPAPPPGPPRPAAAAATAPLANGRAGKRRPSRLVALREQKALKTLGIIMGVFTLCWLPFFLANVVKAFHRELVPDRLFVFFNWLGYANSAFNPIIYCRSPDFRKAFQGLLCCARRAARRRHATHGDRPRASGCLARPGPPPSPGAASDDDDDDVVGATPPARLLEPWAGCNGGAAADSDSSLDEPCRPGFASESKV
Sequence of Mitogen-activated protein kinase 14 (Q16539 whole entry): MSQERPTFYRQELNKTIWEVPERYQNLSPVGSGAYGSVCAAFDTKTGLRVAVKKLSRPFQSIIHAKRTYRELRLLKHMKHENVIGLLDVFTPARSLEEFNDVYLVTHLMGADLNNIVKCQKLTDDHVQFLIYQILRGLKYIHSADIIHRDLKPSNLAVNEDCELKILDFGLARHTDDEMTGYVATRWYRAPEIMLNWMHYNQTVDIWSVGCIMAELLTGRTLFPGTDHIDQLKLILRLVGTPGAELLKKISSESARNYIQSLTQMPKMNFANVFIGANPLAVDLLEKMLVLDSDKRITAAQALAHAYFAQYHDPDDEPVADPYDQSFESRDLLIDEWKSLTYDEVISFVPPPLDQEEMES

Cc1cccc(N(C)C(=S)Oc2ccc3ccccc3c2)c1 [TOLNAFTATE]
Not Active: IC50 [1] | Ki [1] | IC50 (D(4) dopamine receptor) | IC50 [2] | Ki [2] | IC50 [3] | IC50 [4] | IC50 (Leukotriene C4 synthase) | IC50 [5] | Ki [5]

NC[C@H]1CC[C@H](C(=O)O)CC1 [TRANEXAMIC ACID]
Not Active: IC50 [1] | Ki [1] | IC50 (D(4) dopamine receptor) | IC50 [2] | Ki [2] | IC50 [3] | IC50 [4] | IC50 (Leukotriene C4 synthase) | IC50 [5] | Ki [5]

CC1(C)O[C@@H]2C[C@H]3[C@@H]4CCC5=CC(=O)C=C[C@]5(C)[C@@]4(F)[C@@H](O)C[C@]3(C)[C@]2(C(=O)CO)O1 [TRIAMCINOLONE ACETONIDE]
Not Active: IC50 [1] | Ki [1] | IC50 (D(4) dopamine receptor) | IC50 [2] | Ki [2] | IC50 [3] | IC50 [4] | IC50 (Leukotriene C4 synthase) | IC50 [5] | Ki [5]

NS(=O)(=O)c1cc2c(cc1Cl)NC(C(Cl)Cl)NS2(=O)=O (centres undefined) [TRICHLORMETHIAZIDE]
Not Active: IC50 [1] | Ki [1] | IC50 (D(4) dopamine receptor) | IC50 [2] | Ki [2] | IC50 [3] | IC50 [4] | IC50 (Leukotriene C4 synthase) | IC50 [5] | Ki [5]

Cc1c(C)c2c(c(C)c1O)CCC(C)(COc1ccc(CC3SC(=O)NC3=O)cc1)O2 (centres undefined) [TROGLITAZONE]
Not Active: IC50 [1] | Ki [1] | IC50 (D(4) dopamine receptor) | IC50 [2] | Ki [2] | IC50 [3] | IC50 [4] | IC50 (Leukotriene C4 synthase) | IC50 [5] | Ki [5]

N[C@@H]1[C@H]2CN(c3nc4c(cc3F)c(=O)c(C(=O)O)cn4-c3ccc(F)cc3F)C[C@@H]12 [TROVAFLOXACIN]
Not Active: IC50 [1] | Ki [1] | IC50 (D(4) dopamine receptor) | IC50 [2] | Ki [2] | IC50 [3] | IC50 [4] | IC50 (Leukotriene C4 synthase) | IC50 [5] | Ki [5]

N#CC(C#N)=Cc1ccc(O)c(O)c1 [TYRPHOSTIN 23]
Not Active: IC50 [1] | Ki [1] | IC50 (D(4) dopamine receptor) | IC50 [2] | Ki [2] | IC50 [3] | IC50 [4] | IC50 (Leukotriene C4 synthase) | IC50 [5] | Ki [5]

CC[C@]1(O)C[C@H]2CN(CCc3c([nH]c4ccccc34)[C@@](C(=O)OC)(c3cc4c(cc3OC)N(C=O)[C@H]3[C@@](O)(C(=O)OC)[C@H](OC(C)=O)[C@]5(CC)C=CCN6CC[C@]43[C@@H]65)C2)C1 [VINCRISTINE]
Not Active: IC50 [1] | Ki [1] | IC50 (D(4) dopamine receptor) | IC50 [2] | Ki [2] | IC50 [3] | IC50 [4] | IC50 (Leukotriene C4 synthase) | IC50 [5] | Ki [5]

CCCOc1ccccc1-c1nc2nn[nH]c2c(=O)[nH]1 [ZAPRINAST]
Not Active: IC50 [1] | Ki [1] | IC50 (D(4) dopamine receptor) | IC50 [2] | Ki [2] | IC50 [3] | IC50 [4] | IC50 (Leukotriene C4 synthase) | IC50 [5] | Ki [5]

SODIUM NITROPRUSSIDE
Not Active: IC50 [1] | Ki [1] | IC50 (D(4) dopamine receptor) | Ki (D(4) dopamine receptor) | IC50 [2] | Ki [2] | IC50 [3] | Ki [3] | IC50 [4] | Ki [4] | IC50 (Leukotriene C4 synthase) | Ki (Leukotriene C4 synthase) | IC50 [5] | Ki [5]
